According to patent US4322528A (priority 1979, dated 1982):
Read-outs that look alike come from different tables or passages of the source.

How the values were obtained:
Experiment in all cases: whole plant or invertebrate
Housefly Larvae = settings: Musca domestica, soil, 168 h
Housefly Adult = settings: Musca domestica, read-out: Housefly Adult, Contact Spray, % control @ ppm
Cabbage Looper Larvae = settings: Trichoplusia ni, foliar, read-out: Cabbage Looper Larvae, Leaf Feed, % control @ ppm
[1] = system: Parathion-resistant Two-spotted Spider Mite Egg; settings: Tetranychus urticae, foliar, read-out: Parathion-resistant Two-spotted Spider Mite, Egg, % control @ ppm
Tobacco Budworm Larvae = settings: Heliothis virescens, foliar, read-out: Tobacco Budworm Larvae, Leaf Feed, % control @ ppm
[2] = system: Hock Colorado Potato Beetle 2nd Stg. Larva; settings: Leptinotarsa decemlineata, foliar, read-out: Hock Colorado Potato Beetle 2nd Stg. Larva, Leaf Feed, % control @ ppm
[3] = read-out: 7-Day Exposure Housefly Larvae Treatment, % control, C @ ppm (second sub-column)
[4] = read-out: 7-Day Exposure Housefly Larvae Treatment, % control @ ppm

Row | SMILES | mortality at 40 ppm (Housefly Larvae; [3]) [%] | mortality at 100 ppm (Housefly Adult) [%] | mortality at 500 ppm (Cabbage Looper Larvae) [%] | mortality at 40 ppm [1] [%] | mortality at 500 ppm (Tobacco Budworm Larvae) [%] | mortality at 500 ppm [2] [%] | mortality at 40 ppm (Housefly Larvae; [4]) [%]
1 | CCOP(=S)(OCC)Oc1cc(C)nc(C(C)C)n1 [Diazinon, reference compound] | 37 |  |  |  |  |  | 
2 | ClC1=NC(Cl)(Cl)C2(Cl)C3CC(C(Cl)C3Cl)C12Cl (centres unmarked) [Ex. 3, 4-aza-2,3,5,5,6,8,9-heptachlorotricyclo[5.2.1.0^2.6]dec-3-ene] | 67 | 83 | 26 | 31 |  |  | 
3 | ClC1=C(Cl)C2(Cl)C(c3ccccc3)CN1C2(Cl)Cl (centres unmarked) [Ex. 4, 1-aza-5-phenyl-2,3,4,7,7-pentachlorobicyclo[2.2.1]-2-heptene] |  | 10 |  | 77 | 66 | 50 | 43
4 | ClC1=C(Cl)C2(Cl)C3c4ccccc4CC3N1C2(Cl)Cl (centres unmarked) [Ex. 5, 1-aza-4,5-benzo-7,8,9,10,10-pentachlorotricyclo[5.2.1.0^2.6]-8-decene] |  | 42 |  | 13 | 6 |  | 47
